Like-named read-outs stand apart in the source and are kept apart here.
Experiments:
Type in all cases: cell-based
HIV-1/LAI = experiment: In vitro antiviral activity in acutely infected MT4 cells, wild type; conditions: read-out: median EC50
Description: (§1) Determination of the antiviral activity of a compound was done as described in Pauwels R. et al. (J Virol Methods 1988; 20(4):309-21). Various concentrations of the test compounds were brought into each well of a flat-bottom microtiter plate. Subsequently, HIV and MT4 cells were added to a final concentration of 200-250 50% cell culture infectious doses (CCID50)/well and 30,000 cells/well, respectively. After 5 days of incubation (37° C., 5% CO2), the cytopathic effect of the replicating virus was determined by the tetrazolium colorimetric MTT method. The dose protecting 50% of the cells from virus cytopathic effect was defined as the EC50, while the dose achieving 90% protection was defined as the EC90.
(§2) MT4-LTR-EGFP cells were infected at a multiplicity of infection (MOI) of 0.01 to 0.001 CCID50/cell in the presence of inhibitor. The starting concentration of the inhibitor was two to tee times the EC50, a suboptimal concentration. The cultures were sub-cultivated and scored microscopically on virus-induced fluorescence and cytopathicity every 3-4 days. The cultures were sub-cultivated in the presence of the same compound concentration until signs of virus replication were observed. The escaping virus was further cultivated in the presence of the same inhibitor concentration in order to enrich the population in resistant variants. If full virus breakthrough was observed the supernatant was collected and stored (new virus strain). Afterwards, the same virus was challenged with a higher compound concentration in order to select variants able to grow in the presence of as high as possible inhibitor concentrations. From the new viruses, a virus stock was grown in the absence of inhibitor.
(§3) In vitro drug selection experiments starting from wild-type HIV-1 under pressure of compound 1, compound 2, and Nelfinavir (NFV) have been performed. Tables 1, 2, 3, 4, and 5 show the genotypic and phenotypic characterization of the selected strains.

[1] = system: HIV-1/LAI strain selected with Compound 1 (100 nM, 97 days), protease R41T K70E; experiment: In vitro antiviral activity in acutely infected MT4 cells, selected strain; conditions: for EC50: Human immunodeficiency virus 1, Table 1, strain R41T K70E (Compound 1 100 nM, 97 days), read-out: median EC50; for median FC (fold change in EC50 as compared to wild type): Table 1, strain R41T K70E (Compound 1 100 nM, 97 days)
Description: as §1
as §2, with “The cultures were sub-cultivated in the presence of the same compound concentration until signs of virus replication were observed.” left out, “Afterwards, the same virus was challenged with a higher compound concentration in order to select variants able to grow in the presence of as high as possible inhibitor concentrations.” left out

[2] = system: HIV-1/LAI strain selected with Compound 2 (100 nM), protease R41I; experiment: as above; conditions: Human immunodeficiency virus 1, Table 3, R41I strain selected with Compound 2 100 nM (head lists 116, 200, 264 days; assignment unclear), read-out: median EC50
Description: as §1
as §2, with “The cultures were sub-cultivated in the presence of the same compound concentration until signs of virus replication were observed.” left out, “Afterwards, the same virus was challenged with a higher compound concentration in order to select variants able to grow in the presence of as high as possible inhibitor concentrations.” left out

[3] = system: HIV-1/LAI strain selected with NFV (3000 nM, 69 days), protease L10F D30N M46I V77I I85V/I N88D/N; experiment: as above; conditions: for EC50: Human immunodeficiency virus 1, Table 5, strain L10F D30N M46I V77I I85V/I N88D/N (NFV 3000 nM, 69 days), read-out: median EC50; for median FC (fold change in EC50 as compared to wild type): Table 5, strain L10F D30N M46I V77I I85V/I N88D/N (NFV 3000 nM, 69 days)
Description: as §1, §2, §3

[4] = Human immunodeficiency virus 1, MT4, Table 1, wild-type HIV/LAI
[5] = Human immunodeficiency virus 1, MT4, Table 2, wild-type HIV-1/LAI
[6] = Human immunodeficiency virus 1, MT4, Table 3, wild-type HIV-1/LAI
[7] = Human immunodeficiency virus 1, MT4, Table 4, wild-type HIV-1/LAI
[8] = Human immunodeficiency virus 1, MT4, Table 5, wild-type HIV-1/LAI

| SMILES | EC50 (HIV-1/LAI; [4]) [nM] | EC50 (HIV-1/LAI; [5]) [nM] | EC50 (HIV-1/LAI; [6]) [nM] | EC50 (HIV-1/LAI; [7]) [nM] | EC50 (HIV-1/LAI; [8]) [nM] | EC50 [1] [nM] | median FC (fold change in EC50 as compared to wild type) [1] | EC50 [2] [nM] | EC50 [3] [nM] | median FC (fold change in EC50 as compared to wild type) [3] |
| --- | --- | --- | --- | --- | --- | --- | --- | --- | --- | --- |
| CC(C)CN(C[C@@H](O)[C@H](Cc1ccccc1)NC(=O)O[C@H]1CCOC1)S(=O)(=O)c1ccc(N)cc1 [Amprenavir] | 36 | 20 | 20 | 20 | 20 | 29 | 1 | 8.4 | 59 | 3 |
| CC(C)(C)NC(=O)[C@@H]1CN(Cc2cccnc2)CCN1C[C@@H](O)C[C@@H](Cc1ccccc1)C(=O)N[C@H]1c2ccccc2C[C@H]1O [Indinavir] | 28 | 12 | 12 | 12 | 12 | 98 | 4 | 47 |  |  |
| Cc1c(O)cccc1C(=O)N[C@@H](CSc1ccccc1)[C@H](O)CN1C[C@H]2CCCC[C@H]2C[C@H]1C(=O)NC(C)(C)C [Nelfinavir] | 30 | 38 | 38 | 38 | 38 | 18 | 1 | 14 |  |  |
| CC(C)(C)NC(=O)[C@@H]1C[C@@H]2CCCC[C@@H]2CN1C[C@@H](O)[C@H](Cc1ccccc1)NC(=O)[C@H](CC(N)=O)NC(=O)c1ccc2ccccc2n1 [Saquinavir] | 7.8 | 5.6 | 5.6 | 5.6 | 5.6 | 35 | 4 | 45 | 2.5 | 0 |
